# Reference: patent US9604974B2, “Compounds as modulator of JAK-STAT pathway, methods and applications thereof” (UNIVERSITY OF MYSORE, priority 2015, dated 2017)
# Tests used:
# [1] = tested on: HepG2 cells; test: Matrigel invasion assay; type: cell-based, human; conditions: 5 μMol/L CIMO, presence and absence of CXCL12
# Description: FIG. 5 depicts inhibition of cell migration by Compound 1 (CIMO) [A]. 70 μl HepG2 cells (5×10^5/mL) are seeded into each compartments of culture insert and insert is removed after about 12 hours. Width of the wound is measured initially and incubation is carried out with and without CIMO (5 μM, for about 8 hours) and CXCL12 (100 ng/mL, for about 24 hours). [B] Inhibition of cell invasion by Compound 1 (CIMO). HepG2 (2×10^5) cells are seeded in the top chamber of BD BioCoat™ Matrigel™. After pre-incubation with or without 5 μMol/L CIMO for about 8 hours, transwell chambers are placed into the wells of a 24-well plate which contains either only basal medium or basal medium with CXCL12 (100 ng/mL) for about 24 hours. After incubation, the chambers are assessed for cell invasion by staining with crystal violet.
# In case of the invasion assay, the said assay is performed wherein BD (Biocoat™ Matrigel™) Invasion chamber with 8 μm pores in the light-tight polyethylene terephthalate membrane is taken and is coated with a reconstituted basement membrane gel (BD Biosciences). 2×10^5 cells are suspended in serum-free DMEM and seeded into the Matrigel Transwell chambers. The cells are incubated with CIMO for about 8 hours. […] The invading cells are then counted in five randomly selected areas under microscopic observation.
# [2] = tested on: caspase-3 and PARP; test: Western blot of procaspase-3 and PARP cleavage; type: cell-based, human; conditions: HepG2, 10 μMol/L CIMO, time dependent
# Description: FIG. 4 depicts activation of caspase-3 and induction of apoptosis by Compound 1 (CIMO) [A]. HepG2 cells (5×10^5/mL) are treated with 10 μMol/L CIMO for the indicated times, whole-cell extracts are prepared, separated on SDS-PAGE, and subjected to Western Blotting against caspase-3 and PARP antibody. The same blot is stripped and reprobed with Beta actin antibody to show equal protein loading. [B] Tyrosine phosphatase inhibitor-sodium pervanadate reverses the inhibitory effect of Compound 1 (CIMO) on phospho-STAT3. HepG2 cells (5×10^5/mL) are treated with the indicated concentrations of sodium pervanadate and 10 μMol/L CIMO for about 4 hours, after which whole-cell extracts are prepared, resolved on SDS-PAGE gel, electrotransferred onto nitrocellulose membrane, and probed for phospho-STAT3 and STAT3. [C] illustrates the inhibitory activity of Compound 1 (CIMO) on phospho-STAT3 mediated by protein tyrosine phosphatase. […]
# (§1) To detect STAT3-regulated proteins and PARP, cells (2×10^6/ml) are treated with CIMO for the indicated times as shown in respective FIGS. 3E, 3D and 4A. […] Whole-cell extract protein (30 μg) is resolved on SDS-PAGE, electrotransferred onto a nitrocellulose membrane, blotted with antibodies against survivin, Bcl-2, Bcl-xL, cyclin D1, Bak, Bid, ICAM-1, procaspase-3, and PARP and then detected by chemiluminescence (ECL; GE Healthcare, Little Chalfont, Buckinghamshire, UK).
# [3] = tested on: STAT3; test: IL-6 induced STAT3 phosphorylation in Hep3B; type: cell-based; conditions: 10 μMol/L CIMO, IL-6 10 ng/mL
# Description: (§2) FIG. 3 depicts comparative study of cell viability between STAT3-siRNA transfected and Compound 1 (CIMO) treated HepG2 cells [A]. Correspondingly, Western Blot analysis is used to assess the levels of phospho-STAT3 and STAT3 in HepG2 cells with siRNA-mediated depletion STAT3 expression and on exposure to 4 μM CIMO. Whole cell extract is prepared and resolved on SDS-PAGE gel, electrotransferred onto nitrocellulose membrane, and probed for phospho-STAT3 and the same blot is stripped and reprobed with STAT3 antibody and Beta actin to verify equal protein loading. [B] showcases the modulation of STAT3 mediated transcription, α2-M promoter activity by Compound 1 (CIMO) in HepG2 cells. [C] depicts the inhibition of IL-6-induced phosphorylation of STAT3, JAK1 and JAK2 by Compound 1 (CIMO). Hep3B cells (5×10^5/mL) are treated with 10 μMol/L CIMO for the indicated times and then stimulated with IL-6 (10 ng/mL) for about 15 minutes. Whole-cell extracts are then prepared, resolved on SDS-PAGE gel, electrotransferred onto nitrocellulose membrane and probed with phospho-STAT3, phospho-JAK1 and phospho-JAK2 antibodies. The same blot is stripped and reprobed with STAT3, JAK1 and JAK2 antibody to verify equal protein loading. [D] and [E], showcases the suppression of STAT3 regulated gene products involved in cell proliferation and survival by Compound 1 (CIMO). […]
# [4] = tested on: Bcl-2, Bcl-xL, Survivin, ICAM-1, Bid, Cyclin D1, Bak; test: Western blot of STAT3-regulated gene products; type: cell-based, human; conditions: HepG2, 10 μMol/L CIMO
# Description: as §2, §1
compound,measurement,setting,value
COc1ccc(C2CNC(c3cn(Cc4ccc(-c5ccccc5C#N)cc4)c4ccccc34)OC23CCCCC3)cc1 (stereo not shown) [Compound 1],inhibition of HepG2 cells motility (invasion),[1],more than 50%
same,full length PARP / cleaved 85-kDa fragment,[2],decline of full length PARP with increase in cleaved 85-kDa fragment
same,procaspase-3 activation,[2],activation of procaspase-3
same,IL-6 induced phosphorylation of STAT3,[3],substantially down-regulates
same,"expression of Bcl-2, Bcl-xL, Survivin, ICAM-1, Bid and Cyclin D1",[4],Down-regulation
same,time of maximum activity on Bak expression,[4],36 h
same,expression of pro-apoptotic protein Bak,[4]; time-dependent,upregulation
